# From patent US20230085307A1, “PYRIDAZINONE COMPOUND AND HERBICIDE” (NISSAN CHEMICAL CORPORATION, priority 2019, published 2023)
# What was measured:
# wild oat [1] = test: Test Example 4: herbicidal effect by soil treatment (Table 19, symbol I); assay type: in vivo, wild oat (Avena fatua)
# In short: (§1)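 Emulsion of test compound, water-diluted to predetermined amount, sprayed on soil after sowing (seed depth ~1.5 cm, sterilized diluvial soil). Greenhouse, 25–30° C. Effect graded at three weeks post-spray.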
# oval-leafed pondweed [2] = test: Test Example 2: herbicidal activity, application during weed generation under submerged conditions (Table 17, symbol C); assay type: in vivo, oval-leafed pondweed (Monochoria vaginalis); conditions: AAH 320 g/ha; application during weed generation, submerged conditions
# In short: (§2)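 Wagner pot, alluvial soil, 4 cm flood; mixed sowing of all species; greenhouse 25° C.–30° C. Emulsifiable formulation, water-diluted to predetermined dose, applied to paddy water at 1–2 leaf stage. Effect rated at 3 wk using the earlier test's scoring criteria.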
# Italian ryegrass [3] = test: Test Example 4: herbicidal effect by soil treatment (Table 19, symbol K); assay type: in vivo, Italian ryegrass (Lolium multiflorum)
# In short: as §1
# oval-leafed pondweed [4] = test: Test Example 1: herbicidal activity, application before weed generation under submerged conditions (Table 16, symbol C); assay type: in vivo, oval-leafed pondweed (Monochoria vaginalis); conditions: 320 g/ha applied herbicide
# In short: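 Emulsion formulation, water-diluted to set dose, was put onto the flooded surface (4 cm depth, alluvial soil) the same day weeds were sown and 2.5-leaf rice transplanted. After 3 weeks at 25-30 °C under glass, each species was rated 0 (≤5% kill) to 5 (≥90% kill).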
# blackgrass = test: Test Example 4: herbicidal effect by soil treatment (Table 19, symbol J); assay type: in vivo, blackgrass (Alopecurus myosuroides); conditions: for herbicidal effect rating, J: blackgrass: amount of applied herbicide 320 g/ha
# In short: as §1
# late watergrass = test: Test Example 2: herbicidal activity, application during weed generation under submerged conditions (Table 17, symbol A); assay type: in vivo, late watergrass (Echinochloa oryzicola); conditions: AAH 320 g/ha; application during weed generation, submerged conditions
# In short: as §2
# chickweed = test: Test Example 4: herbicidal effect by soil treatment (Table 19, symbol P); assay type: in vivo, common chickweed (Stellaria media)
# In short: as §1
# green foxtail [5] = test: Test Example 5: herbicidal effect by foliage application, plastic box (Table 20, symbol G); assay type: in vivo, green foxtail (Setaria viridis); conditions: foliage application
# In short: (§3)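 Post-emergence foliar test in sterilized diluvial soil. Compound applied as water-diluted emulsion at a predetermined rate to 14-day-old plants; evaluation at three weeks.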
# southern crabgrass = test: Test Example 5: herbicidal effect by foliage application, plastic box (Table 20, symbol F); assay type: in vivo, southern crabgrass (Digitaria ciliaris); conditions: foliage application
# In short: as §3
# redroot pigweed = test: Test Example 4: herbicidal effect by soil treatment (Table 19, symbol N); assay type: in vivo, redroot pigweed (Amaranthus retroflexus)
# In short: as §1
# Italian ryegrass [6] = test: Test Example 5: herbicidal effect by foliage application, plastic box (Table 20, symbol K); assay type: in vivo, Italian ryegrass (Lolium multiflorum); conditions: foliage application
# In short: as §3
# persian speedwell = test: Test Example 5: herbicidal effect by foliage application, plastic box (Table 20, symbol R); assay type: in vivo, Persian speedwell (Veronica persica); conditions: foliage application
# In short: as §3
# wild oat [7] = test: Test Example 5: herbicidal effect by foliage application, plastic box (Table 20, symbol I); assay type: in vivo, wild oat (Avena fatua); conditions: foliage application
# In short: as §3
# velvetleaf [8] = test: Test Example 5: herbicidal effect by foliage application, plastic box (Table 20, symbol M); assay type: in vivo, velvetleaf (Abutilon theophrasti); conditions: foliage application
# In short: as §3
# velvetleaf [9] = test: Test Example 4: herbicidal effect by soil treatment (Table 19, symbol M); assay type: in vivo, velvetleaf (Abutilon theophrasti)
# In short: as §1
# rice flat sedge = test: Test Example 3: herbicidal effect by foliage application, Wagner pot (Table 18, symbol E); assay type: in vivo, rice flat sedge (Cyperus iria); conditions: for herbicidal effect on E (rice flat sedge), rating 0-5: 320 g/ha
# In short: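 Plants were sown in alluvial soil held under 0.1–0.5 cm standing water and grown 14 days in a greenhouse at 25–30 °C. An emulsifiable formulation, water-diluted to the set dose, was then sprayed onto the foliage, and effects were scored three weeks later using previously defined criteria.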
# green foxtail [10] = test: Test Example 4: herbicidal effect by soil treatment (Table 19, symbol G); assay type: in vivo, green foxtail (Setaria viridis)
# In short: as §1
# [11] = 320 g/ha, 3 weeks after application
# [12] = amount of applied herbicide 320 g/ha
# [13] = 320 g/ha, three weeks after application
# [14] = AAH 320 g/ha, three weeks after application
# [15] = AAH 320 g/ha, evaluated three weeks after application
compound,measurement,setting,value
C=CCC(C)Oc1ccc(-c2sc3ccccc3c2-c2c(O)c(C)nn(C)c2=O)cc1 (racemic) [1-213],"I: wild oat, herbicidal effect rating",wild oat [1]; AAH 320 g/ha,0 (Herbicidal rate of 5% or less (almost no effect))
same,"herbicidal effect rating, C: oval-leafed pondweed",oval-leafed pondweed [2],4 (Herbicidal rate of 70% or more and less than 90%)
same,"K: Italian ryegrass, herbicidal effect rating",Italian ryegrass [3]; AAH 320 g/ha,3 (Herbicidal rate of 40% or more and less than 70%)
same,Herbicidal effect on C: oval-leafed pondweed (grade 0-5),oval-leafed pondweed [4],5 (Herbicidal rate of 90% or more (almost completely withered))
same,"J: blackgrass, herbicidal effect rating",blackgrass; AAH 320 g/ha,1 (Herbicidal rate of 5% or more and less than 20%)
same,"herbicidal effect rating, A: late watergrass",late watergrass,3 (Herbicidal rate of 40% or more and less than 70%)
same,"P: chickweed, herbicidal effect rating",chickweed; AAH 320 g/ha,3 (Herbicidal rate of 40% or more and less than 70%)
same,effect on green foxtail (G),green foxtail [5]; [11],5 (Herbicidal rate of 90% or more (almost completely withered))
same,effect on southern crabgrass (F),southern crabgrass; [11],5 (Herbicidal rate of 90% or more (almost completely withered))
same,"N: redroot pigweed, herbicidal effect rating",redroot pigweed; AAH 320 g/ha,0 (Herbicidal rate of 5% or less (almost no effect))
same,effect on Italian ryegrass (K),Italian ryegrass [6]; [11],4 (Herbicidal rate of 70% or more and less than 90%)
same,effect on persian speedwell (R),persian speedwell; [11],5 (Herbicidal rate of 90% or more (almost completely withered))
same,effect on wild oat (I),wild oat [7]; [11],3 (Herbicidal rate of 40% or more and less than 70%)
same,effect on velvetleaf (M),velvetleaf [8]; [11],5 (Herbicidal rate of 90% or more (almost completely withered))
same,"M: velvetleaf, herbicidal effect rating",velvetleaf [9]; AAH 320 g/ha,0 (Herbicidal rate of 5% or less (almost no effect))
same,"herbicidal effect on E (rice flat sedge), rating 0-5",rice flat sedge,3 (Herbicidal rate of 40% or more and less than 70%)
same,"G: green foxtail, herbicidal effect rating",green foxtail [10]; AAH 320 g/ha,0 (Herbicidal rate of 5% or less (almost no effect))
CCCCCOc1ccc(-c2sc3ccccc3c2-c2c(O)c(C)nn(C)c2=O)cc1 [1-026],"herbicidal effect rating, I: wild oat",wild oat [1]; [12],0 (Herbicidal rate of 5% or less (almost no effect))
same,"herbicidal effect rating, K: Italian ryegrass",Italian ryegrass [3]; [12],0 (Herbicidal rate of 5% or less (almost no effect))
same,Herbicidal effect on C: oval-leafed pondweed (grade 0-5),oval-leafed pondweed [4],1 (Herbicidal rate of 5% or more and less than 20%)
same,"herbicidal effect rating, J: blackgrass",blackgrass,0 (Herbicidal rate of 5% or less (almost no effect))
same,"herbicidal effect rating, A: late watergrass",late watergrass,2 (Herbicidal rate of 20% or more and less than 40%)
same,"herbicidal effect rating, P: chickweed",chickweed; [12],2 (Herbicidal rate of 20% or more and less than 40%)
same,"herbicidal effect grade, G: green foxtail",green foxtail [5]; [13],5 (Herbicidal rate of 90% or more (almost completely withered))
same,"herbicidal effect grade, F: southern crabgrass",southern crabgrass; [13],4 (Herbicidal rate of 70% or more and less than 90%)
same,"herbicidal effect rating, N: redroot pigweed",redroot pigweed; [12],5 (Herbicidal rate of 90% or more (almost completely withered))
same,"herbicidal effect grade, K: Italian ryegrass",Italian ryegrass [6]; [13],2 (Herbicidal rate of 20% or more and less than 40%)
same,"herbicidal effect grade, R: persian speedwell",persian speedwell; [13],5 (Herbicidal rate of 90% or more (almost completely withered))
same,"herbicidal effect grade, I: wild oat",wild oat [7]; [13],2 (Herbicidal rate of 20% or more and less than 40%)
same,"herbicidal effect grade, M: velvetleaf",velvetleaf [8]; [13],5 (Herbicidal rate of 90% or more (almost completely withered))
same,"herbicidal effect rating, M: velvetleaf",velvetleaf [9]; [12],0 (Herbicidal rate of 5% or less (almost no effect))
same,"herbicidal effect on E (rice flat sedge), rating 0-5",rice flat sedge,4 (Herbicidal rate of 70% or more and less than 90%)
same,"herbicidal effect rating, G: green foxtail",green foxtail [10]; [12],0 (Herbicidal rate of 5% or less (almost no effect))
Cc1nn(C)c(=O)c(-c2c(-c3cnc4ccccc4c3)sc3ccccc23)c1O [1-108],"herbicidal effect rating, I: wild oat",wild oat [1]; [12],0 (Herbicidal rate of 5% or less (almost no effect))
same,"herbicidal effect rating, C: oval-leafed pondweed",oval-leafed pondweed [2],0 (Herbicidal rate of 5% or less (almost no effect))
same,"herbicidal effect rating, K: Italian ryegrass",Italian ryegrass [3]; [12],0 (Herbicidal rate of 5% or less (almost no effect))
same,Herbicidal effect on C: oval-leafed pondweed (grade 0-5),oval-leafed pondweed [4],0 (Herbicidal rate of 5% or less (almost no effect))
same,"herbicidal effect rating, J: blackgrass",blackgrass,0 (Herbicidal rate of 5% or less (almost no effect))
same,"herbicidal effect rating, A: late watergrass",late watergrass,0 (Herbicidal rate of 5% or less (almost no effect))
same,"herbicidal effect rating, P: chickweed",chickweed; [12],0 (Herbicidal rate of 5% or less (almost no effect))
same,"G: green foxtail, herbicidal effect",green foxtail [5]; [14],0 (Herbicidal rate of 5% or less (almost no effect))
same,"F: southern crabgrass, herbicidal effect",southern crabgrass; [14],0 (Herbicidal rate of 5% or less (almost no effect))
same,"herbicidal effect rating, N: redroot pigweed",redroot pigweed; [12],0 (Herbicidal rate of 5% or less (almost no effect))
same,"K: Italian ryegrass, herbicidal effect",Italian ryegrass [6]; [14],0 (Herbicidal rate of 5% or less (almost no effect))
same,"R: persian speedwell, herbicidal effect",persian speedwell; [14],0 (Herbicidal rate of 5% or less (almost no effect))
same,"I: wild oat, herbicidal effect",wild oat [7]; [14],0 (Herbicidal rate of 5% or less (almost no effect))
same,"M: velvetleaf, herbicidal effect",velvetleaf [8]; [14],1 (Herbicidal rate of 5% or more and less than 20%)
same,"herbicidal effect on E (rice flat sedge), rating 0-5",rice flat sedge,5 (Herbicidal rate of 90% or more (almost completely withered))
same,"herbicidal effect rating, G: green foxtail",green foxtail [10]; [12],0 (Herbicidal rate of 5% or less (almost no effect))
Cc1nn(C)c(=O)c(-c2c(-c3ccc(OC(F)F)cc3)sc3ccc(F)cc23)c1OC(=O)c1ccco1 [2-287],herbicidal effect on I: wild oat,wild oat [1]; [12],0 (Herbicidal rate of 5% or less (almost no effect))
same,"herbicidal effect rating, C: oval-leafed pondweed",oval-leafed pondweed [2],4 (Herbicidal rate of 70% or more and less than 90%)
same,herbicidal effect on K: Italian ryegrass,Italian ryegrass [3]; [12],5 (Herbicidal rate of 90% or more (almost completely withered))
same,Herbicidal effect on C: oval-leafed pondweed (grade 0-5),oval-leafed pondweed [4],4 (Herbicidal rate of 70% or more and less than 90%)
same,"herbicidal effect rating, A: late watergrass",late watergrass,3 (Herbicidal rate of 40% or more and less than 70%)
same,herbicidal effect on P: chickweed,chickweed; [12],4 (Herbicidal rate of 70% or more and less than 90%)
same,"G: green foxtail, herbicidal effect (criteria 0-5)",green foxtail [5]; [15],5 (Herbicidal rate of 90% or more (almost completely withered))
same,"F: southern crabgrass, herbicidal effect (criteria 0-5)",southern crabgrass; [15],5 (Herbicidal rate of 90% or more (almost completely withered))
same,herbicidal effect on N: redroot pigweed,redroot pigweed; [12],5 (Herbicidal rate of 90% or more (almost completely withered))
same,"K: Italian ryegrass, herbicidal effect (criteria 0-5)",Italian ryegrass [6]; [15],5 (Herbicidal rate of 90% or more (almost completely withered))
same,"R: persian speedwell, herbicidal effect (criteria 0-5)",persian speedwell; [15],5 (Herbicidal rate of 90% or more (almost completely withered))
same,"I: wild oat, herbicidal effect (criteria 0-5)",wild oat [7]; [15],3 (Herbicidal rate of 40% or more and less than 70%)
same,"M: velvetleaf, herbicidal effect (criteria 0-5)",velvetleaf [8]; [15],5 (Herbicidal rate of 90% or more (almost completely withered))
same,herbicidal effect on M: velvetleaf,velvetleaf [9]; [12],5 (Herbicidal rate of 90% or more (almost completely withered))
same,herbicidal effect on E: rice flat sedge,rice flat sedge; [12],5 (Herbicidal rate of 90% or more (almost completely withered))
same,herbicidal effect on G: green foxtail,green foxtail [10]; [12],5 (Herbicidal rate of 90% or more (almost completely withered))
